Tests used:
human PPARγ1 = target: T1, human PPARγ1 (Homo sapiens, UniProt P37231); assay: PPARgamma reporter gene assay (luciferase) in transfected cos-7 cells; type: cell-based
T1 construct: expressed in transfected cells; host or cells: cos-7 cells (ECACC No. 87021302)
T1 sequence (P37231 1-477 isoform P37231-2): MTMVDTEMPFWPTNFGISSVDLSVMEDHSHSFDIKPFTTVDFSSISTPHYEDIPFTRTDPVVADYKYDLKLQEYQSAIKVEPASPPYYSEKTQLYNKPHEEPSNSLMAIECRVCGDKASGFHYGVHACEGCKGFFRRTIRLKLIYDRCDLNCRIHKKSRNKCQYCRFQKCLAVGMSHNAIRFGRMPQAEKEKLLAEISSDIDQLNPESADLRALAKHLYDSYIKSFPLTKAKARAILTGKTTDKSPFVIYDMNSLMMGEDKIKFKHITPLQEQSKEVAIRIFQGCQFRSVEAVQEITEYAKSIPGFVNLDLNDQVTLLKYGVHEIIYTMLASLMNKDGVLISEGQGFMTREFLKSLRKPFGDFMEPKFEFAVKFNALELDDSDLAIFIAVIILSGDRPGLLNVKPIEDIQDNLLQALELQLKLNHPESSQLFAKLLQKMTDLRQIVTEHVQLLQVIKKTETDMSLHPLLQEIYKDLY
T1 sequence (P19793 1-462 partner): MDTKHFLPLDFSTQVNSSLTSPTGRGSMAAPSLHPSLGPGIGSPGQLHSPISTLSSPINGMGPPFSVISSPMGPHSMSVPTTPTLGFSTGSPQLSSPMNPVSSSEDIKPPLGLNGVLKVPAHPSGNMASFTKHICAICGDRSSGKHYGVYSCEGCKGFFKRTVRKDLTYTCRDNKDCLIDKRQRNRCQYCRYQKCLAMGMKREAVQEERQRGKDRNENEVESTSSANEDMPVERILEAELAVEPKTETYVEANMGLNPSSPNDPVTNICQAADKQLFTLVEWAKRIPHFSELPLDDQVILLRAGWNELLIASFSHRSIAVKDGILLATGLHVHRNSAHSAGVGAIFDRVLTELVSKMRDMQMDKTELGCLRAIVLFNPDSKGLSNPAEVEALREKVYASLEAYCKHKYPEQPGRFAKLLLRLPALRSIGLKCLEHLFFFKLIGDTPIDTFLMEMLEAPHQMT
Procedure: PPARgamma receptor activity is determined by a suitable reporter gene assay. Preferably the reporter gene assay used comprises the transcription induction of a luciferase gene. Levels of firefly luciferase (normalised against the renilla luciferase control) provide a measure of reporter gene activity which in turn reflects the level of activation.
This assay is based on that described by Kliewer et al (Nature 358 771-774 1992). In brief, cos-7 cells (ECACC No. 87021302) were seeded in 24-well plates at a density of 0.325×10^5 cells/well. Cells were grown overnight at 37° C./5% CO2 in DMEM containing 10% FCS, 2 mM L-glutamine, 100 iu/ml penicillin and 100 µg/ml streptomycin. Cells were washed with transfection media (DMEM containing 2 mM L-glutamine) then transiently transfected with 4 plasmids: a PPAR-responsive firefly luciferase reporter gene (pPPRE3TK-luc); mammalian expression plasmids (pcDNA3/hPPARγ1 and pRSV/hRXRα) containing human PPARγ1 and RXRα cDNAs respectively and a control plasmid (PRLTK, Promega) which constitutatively expresses the renilla luciferase gene. Transfection was performed using Lipofectamine (Gibco Brl) as directed by the manufacturers. Transfected cells were incubated for 6 h at 37° C./5% CO2 and then for a further 46 hours in the presence or absence of ligand. After 46 hours cell lysates were prepared and the level of firefly and renilla luciferase determined using the Dual luciferase assay system (Promega) and a MLX microtitre plate luminometer (Dynex). The level of firefly luciferase (normalised against the renilla luciferase control) provides a measure of reporter gene activity. This in turn reflect the level of PPARγ activation.
A double-stranded PPAR-binding site was prepared using the ‘Klenow fill-in’ technique. A 113 bp oligonucleotide (PPRE1/3) containing a triplet of PPREs and appropriate restriction endonuclease sites was designed. PPRE1/3 and a 20 bp oligonucleotide (PPRE1/3R) complementary to the 3′ region of PPRE1/3 were synthesised.
In a final volume of 20 μl 2 μg of PPRE1/3R was annealed to 2 μg of PPRE1/3 by boiling for 5 minutes and then cooling slowly to room temperature. Annealed PPRE1/3R was used to prime second-strand DNA synthesis. A 30 μl reaction mix containing 20 μl annealed DNA, 1.5 μl 2 mM dNTPs, 1×Klenow Buffer and 5 units DNA Polymerase I (Klenow fragment) was incubated for 1 hour at 37° C. and then 10 minutes at 75° C. A 5 μl sample of the synthesised product was analysed on a 3% agarose gel. The remaining product was purified by ethanol precipitation and resuspended in sterile water. The double-stranded PPAR-binding site (insert) was digested with MluI and BgllI for 1 hour at 37° C. and then purified by ethanol precipitation. 1 μg of the vector pNF-κB-luc (Clontech) was digested with MluI and BgllI for 1 hour at 37° C. and then analysed on a 1% agarose gel Digested DNA was purified from the gel using a Qiaquick Gel Extraction Kit (Qiagen). Digested vector and insert DNA were incubated for 4 hours at room temperature in a volume of 15 μl containing 1×ligase buffer and 5 units T4 DNA ligase. The full ligation reaction was used to transform competant E.coli JM109 cells (Promega).

[1] = tested on: Human skeletal muscle cells (SMCs); assay: Glucose uptake assay in human skeletal muscle cells ([3H]2-deoxyglucose); type: cell-based
Procedure: Human skeletal muscle cells (SMCs) were obtained from TCS 2000 Ltd. Cells were seeded into 12-well plates at a density of 3×10^4 cells/well and then grown and differentiated as instructed by TCS. Differentiated human SMCs were incubated, for 32 hours at 37° C./5% CO2, in differentiation media (supplied by TCS) supplemented with an appropriate amount of agent or vehicle. Media was then changed to serum free media (MEM-alpha media, 2 mM glutamine, 100 iu/ml penicillin and 100 μg/ml streptomycin), supplemented as before, and the cells incubated for a further 16 hours.
Cells were then washed 3×with Krebs Ringer Phosphate (KRP) buffer [136 mM NaCl, 4.7 mM KCl, 1.25 mM CaCl2, 1.25 mM MgSO4, 10 mM sodium phosphate buffer, pH 7.4] and incubated in KRP (0.5 ml/well) for 30 minutes at 37° C./5% CO2. After 30 minutes incubation the glucose uptake assay was initiated by addition of 25 μl KRP containing 5 μCi [^3H]2-deoxyglucose and 1 mM deoxyglucose. After 10 minutes the reaction was terminated by washing the cells 3×with ice-cold PBS. Cells were then solublised with 125 μl/well of 1% Triton X-100 for 20 minutes at 37° C. Radioactive incorporation was measured by scintillation counting. 100 μl of each sample was analysed.

[2] = 1.25 μg/ml, purified components, Table 8
[3] = 2.5 μg/ml, purified components, Table 8
[4] = 5 μg/ml, purified components, Table 8

Activation of PPARgamma in the reporter gene assay (in words) (human PPARγ1) | Reporter gene activity (Fold-induction relative to the vehicle) Mean (human PPARγ1; [2]) [Fold-induction] | Reporter gene activity (Fold-induction relative to the vehicle) Mean (human PPARγ1; [3]) [Fold-induction] | Reporter gene activity (Fold-induction relative to the vehicle) Mean (human PPARγ1; [4]) [Fold-induction] | Reporter gene activity (Fold-induction relative to the vehicle) Mean (human PPARγ1; 5 μg/ml, Table 9) [Fold-induction] | Compound | [3H] 2-deoxyglucose uptake (Fold-induction relative to vehicle) Mean ([1]; 2.5 uM) [Fold-induction] | [3H] 2-deoxyglucose uptake (Fold-induction relative to vehicle) Mean ([1]; 5 uM) [Fold-induction]
activate PPARgamma to a lesser degree | 3.41 | 4.97 |  |  | C/C(=C\CC/C(C)=C/CC/C(C)=C/CC[C@@H]1[C@@]2(C)CCC(=O)C(C)(C)[C@@H]2CC[C@@]1(C)O)CO [Commipherol, Octahydro-6-hydroxy-5-(13-hydroxy-4,8,12-trimethyl-3,7,11-tridecatrienyl)-1,1,4a,6-tetramethyl-, [4aS-[4aα,5α(3E,7E,11E),6β,8aβ]]-2(1H)-naphthalenone] |  | 
 |  |  |  |  | CC1(COc2ccc(CC3SC(=O)NC3=O)cc2)CCCCC1 (centres unmarked) [Ciglitizone] | 1.3 | 3.3
able to activate PPARgamma | 2.56 | 3.40 | 8.01 |  | C/C(=C\CC/C(C)=C/CCC1[C@](C)(O)CC[C@H]2C(C)(C)C(=O)CC[C@]12C)CC/C=C(\C)C(=O)O (stereo partly drawn) [Commipheric acid, 13-(decahydro-2-hydroxy-2,5,5,8a-tetramethyl-6-oxo-1-naphthalenyl)-2,6,10-trimethyl-, [1R-[1α(2E,6E,10E),2β,4aβ,8aα]]-2,6,10-tridecatrienoic acid] |  | 
activate PPARgamma to a lesser degree | 1.14 | 1.74 | 3.87 |  | C/C(=C\CC/C(C)=C/CC/C(C)=C/CCC1C(C)(O)CCC2C(C)(C)C(O)CCC12C)CO [Myrrhanol A, Decahydro-5-[(3E,7E,11E)-13-hydroxy-4,8,12-trimethyl-3,7,11-tridecatrienyl]-1,1,4a,6-tetramethyl-, (2S,4aS,5R,6R,8aS)-2,6-naphthalenediol] |  | 

Compound | Activation of PPARgamma in the reporter gene assay (in words) (human PPARγ1) | Reporter gene activity (Fold-induction relative to the vehicle) Mean (human PPARγ1; [2]) [Fold-induction] | Reporter gene activity (Fold-induction relative to the vehicle) Mean (human PPARγ1; [3]) [Fold-induction] | Reporter gene activity (Fold-induction relative to the vehicle) Mean (human PPARγ1; [4]) [Fold-induction] | Reporter gene activity (Fold-induction relative to the vehicle) Mean (human PPARγ1; 5 μg/ml, Table 9) [Fold-induction] | [3H] 2-deoxyglucose uptake (Fold-induction relative to vehicle) Mean ([1]; 2.5 uM) [Fold-induction] | [3H] 2-deoxyglucose uptake (Fold-induction relative to vehicle) Mean ([1]; 5 uM) [Fold-induction]
C/C=C1/C(=O)C[C@H]2[C@@H]3CCC4=CC(=O)CC[C@]4(C)[C@H]3CC[C@]12C [E-guggulsterone, reference compound] | neither the E-nor the Z-form of guggulsterone can activate PPARgamma |  |  |  | 0.4 |  | 
C/C=C1\C(=O)C[C@H]2[C@@H]3CCC4=CC(=O)CC[C@]4(C)[C@H]3CC[C@]12C [Z-guggulsterone, reference compound] | neither the E-nor the Z-form of guggulsterone can activate PPARgamma |  |  |  | 0.5 |  | 
